Experimental data reported in US20250108036A1, “COMPOSITIONS FOR REMOVING SENESCENT CELLS AND USES THEREOF” (LIFECEUTIX CO., LTD., priority 2021, published 2025).

Assays:
Assay type in all cases: cell-based, human
[1] = tested on: foreskin cells in which senescence was induced by doxorubicin; assay: CellTiter-Glo cell viability of doxorubicin-induced senescent foreskin cells (Examples 1-2, 10, 11, 13; Tables 4, 63, 65); conditions: doxorubicin-induced senescent foreskin cells, CellTiter-Glo, 0 μM = 100
[2] = tested on: HMGN1; assay: HMGN1 ELISA in culture medium of foreskin cells (Examples 10, 11; Tables 62, 63, 64); conditions: doxorubicin-treated foreskin cells, DMSO = 100
[3] = tested on: HMGN1; assay: HMGN1 ELISA in culture medium of A549 cancer cells (Example 12, Table 66); conditions: doxorubicin-induced senescent A549 cells, ELISA, DMSO = 100
[4] = tested on: A549; assay: CellTiter-Glo cell viability of senescent A549 cancer cells (Example 12, Table 67); conditions: doxorubicin-induced senescent A549 cancer cells, CellTiter-Glo
[5] = tested on: senescent foreskin cells; assay: survival of senescent foreskin cells treated with medium supernatant (secreted fluid) of compound-killed cells (Example 13, Tables 68, 69); conditions: culture medium supernatant from dying senescent cells treated with compound at 30 μM, 90 μM or 270 μM; senescent foreskin cells

Molecule | Survival (%) ([1]; 1.1 μM test compound) | Survival (%) ([1]; 10 μM test compound) | Survival (%) ([1]; 30 μM test compound) | Survival (%) ([1]; […] test compound) | HMGN1 ([2]; 30 μM test compound) | HMGN1 (amount of HMGN1 secreted in the cell culture) ([3]; test compound 30 μM) | Survival (%) ([4]; 1.1 μM test compound) | Survival (%) ([4]; 10 μM test compound) | Survival (%) ([4]; 30 μM test compound) | Survival [5] | HMGN1 (amount of HMGN1 secreted in the cell culture) ([3]; test compound 90 μM) | Survival (%) ([4]; 90 μM test compound) | Survival (%) ([1]; 90 μM test compound) | HMGN1 ([2]; 90 μM test compound) | HMGN1 ([2]; 20 ng/ml test compound) | HMGN1 (amount of HMGN1 secreted in the cell culture) ([3]; test compound 20 ng/ml)
CC(N)(Cc1ccc(O)cc1)C(=O)O (racemic) [LX-3206, Racemetyrosine, reference compound] | 95.8% | 64.7% | 21.3% | 96% | 222 | 215 | 92.6% | 51.9% | 5.7% | 51.9 |  |  |  |  |  | 
O=C(O)CC([S-])C(=O)O.[Au+] (stereo not drawn) [LX-202, Aurothiomalate, reference compound] | 97.4% |  |  | 7.6% | 287 | 327 | 96.7% | 37.3% |  | 45.7 |  |  |  |  |  | 
CN1CC[C@@H](Nc2cccc3c2cc(-c2noc(CNC(=O)c4cnn(C(C)(C)C)c4)n2)n3CC(F)(F)F)[C@@H](F)C1 [LX-915] | 94.7% | 72.8% | 8.5% | 83.2% | 297 |  | 94.7% | 86.9% | 84.9% | 53.1 | 229 | 6.8% |  |  |  | 
Cc1nnc(NC(=O)c2nc(S(=O)(=O)Cc3ccc(F)cc3)ncc2Cl)s1 [LX-916] | 103.5% | 54.5% | 3.5% | 94.2% | 317 |  | 103.9% | 71.7% | 24.4% | 48.7 | 198 | 1.7% |  |  |  | 
CS(=O)(=O)c1ncc(Cl)c(C(=O)O)n1 [LX-917] | 101.8% | 45.8% | 4.7% | 93.2% | 269 |  | 101.5% | 65.7% | 17.1% | 42.5 | 223 | 3.5% |  |  |  | 
CC1=C(C)C(=O)C(CCCCCCCCCC[P+](c2ccccc2)(c2ccccc2)c2ccccc2)=CC1=O.[Br-] [LX-1205] | 0.1% |  |  |  | 279 | 279 | 34.2% |  |  | 53.4 |  |  |  |  |  | 
O=C(NCCCCCCCCCC[P+](c1ccccc1)(c1ccccc1)c1ccccc1)c1nn(Cc2ccc(Cl)cc2Cl)c2ccccc12.[Br-] [LX-1207] | 36.8% |  |  | 10% | 285 | 318 | 59.8% |  |  | 62.7 |  |  |  |  |  | 
C[Si](C)(Cc1ccc(F)cc1)CN1CCCCC1.Cl [LX-1407, Silperisone, reference compound] | 99.4% | 72.8% | 19.9% | 95.9% | 232 | 175 | 101.5% | 71.7% | 39.4% | 69.9 |  |  |  |  |  | 
C[C@@H]1C(=O)C(C#N)=C[C@]2(c3ccccc3)c3c(c(-c4cncnc4)nn3C)CC[C@@H]12 [LX-2408] | 85.9% |  |  | 37.5% | 297 | 329 | 96.5% | 15.9% |  | 55.2 |  |  |  |  |  | 
C[N+](C)(C)CCO.C[N+](C)(C)CCO.[SH-].[SH-].[S]=[Mo]=[S] [LX-2601] | 95.2% | 58.6% | 21.8% | 81.8% | 263 | 193 | 98.6% | 59.7% | 50.7% | 67.3 |  |  |  |  |  | 
CCOC(=O)[C@@H](N)CCC(=O)N[C@@H](CSCc1ccccc1)C(=O)N[C@@H](C(=O)OCC)c1ccccc1 [LX-2602, Ezatiostat, reference compound] | 97.3% | 76.9% | 47.6% | 92.5% | 208 | 283 | 102.7% | 96% | 32.5% | 69.5 |  |  |  |  |  | 
CN(Cc1cnc2nc(N)nc(N)c2n1)c1ccc(C(=O)N[C@@H](CCC(=O)O)C(=O)O)cc1 [LX-2901, Methotrexate, reference compound] | 103.3% | 104.8% | 93.6% | 97.8% |  |  | 89% | 90.4% | 92.3% | 97.5 | 189 | 37.2% | 49.9% | 167 |  | 
C[Se](=O)O [LX-3105, Methylseleninic acid] | 82.1% | 41.1% | 37.7% | 59.5% | 195 |  | 84% | 69.9% | 59.3% | 69.1 | 202 | 39.6% | 4.1% |  |  | 
Cc1nc(-c2nc(-c3ccc(OC(F)(F)F)cc3)no2)nn1Cc1cccc(N2CCC(S(C)(=O)=O)CC2)c1 [LX-3200] | 92.2% | 14.3% |  | 78.6% | 234 | 305 | 94.9% | 61.6% | 1.6% | 54.9 |  |  |  |  |  | 
LX-3401: Interferon gamma, CAS 98059-61-1 (IFNy-1b), 82115-62-6 | 101.8% | 75.8% | 35.4% | 98.1% |  |  | 110.8% | 58.3% | 5.8% | 66.8 |  |  |  |  | 198 | 284
Tocofersolan [LX-3001, reference compound] | 74.8% |  |  | 1.1% | 301 | 261 | 101.6% | 22.6% |  | 58.7 |  |  |  |  |  | 
[3,4,5-triacetyloxy-6-[4-[2-[(dimethylamino)methyl]prop-2-enoyl]phenoxy]oxan-2-yl]methyl acetate [LX-918] | 98.9% | 94.5% | 32.7% | 95.4% | 247 |  | 103.8% | 86.7% | 82.9% | 63.8 | 200 | 31.8% |  |  |  | 
LX-3103: CAS 9015-68-3 (protein, UniProt P00805 23-348, looked up) L-asparaginase 2: LPNITILATGGTIAGGGDSATKSNYTVGKVGVENLVNAVPQLKDIANVKGEQVVNIGSQDMNDNVWLTLAKKINTDCDKTDGFVITHGTDTMEETAYFLDLTVKCDKPVVMVGAMRPSTSMSADGPFNLYNAVVTAADKASANRGVLVVMNDTVLDGRDVTKTNTTDVATFKSVNYGPLGYIHNGKIDYQRTPARKHTSDTPFDVSKLNELPKVGIVYNYANASDLPAKALVDAGYDGIVSAGVGNGNLYKSVFDTLATAAKTGTAVVRSSRVPTGATTQDAEVDDAKYGFVASGTLNPQKARVLLQLALTQTKDPQQIQQIFNQY | 84.4% | 48.5% | 25% | 71.2% | 243 | 254 | 68.7% | 21.1% |  | 64.3 |  |  |  |  |  | 
